Two compounds from ChEMBL document CHEMBL4330166, “Euphorhelipanes A and B, Triglyceride-Lowering Euphorbia Diterpenoids with a Bicyclo[4.3.0]nonane Core from Euphorbia helioscopia” (J Nat Prod, 2019) can be followed below.

The test system of series [1] is Huh-7. The experiment in a line: Inhibition of oleic acid-induced triglyceride accumulation in human HuH7 cells up to 50 uM after 24 hrs by Oil Red O staining based assay. It counts as functional, cell-based.
Series [2] deals with Huh-7. The series can be described thus: Cytotoxicity against human HuH7 cells after 24 hrs by LDH release assay. It counts as cell-based. The note with it: huh-7, 24 h.
In series [3] the test system is Huh-7. The experiment in a line: Inhibition of oleic acid-induced triglyceride accumulation in human HuH7 cells after 24 hrs. It counts as functional, cell-based.

Calls of active or inactive are those of the source. The calls are words filed in the database; no cut-off is given here.

In the case of `CC(=O)C(C)(C)/C=C/[C@@H](C)[C@@]1(O)C(=O)[C@H]2[C@@H](C=C[C@@H]2C)[C@H](C)[C@@H]1O`, the inhibition result in the series with Huh-7 [1] is “Active”. Besides, the Activity result with Huh-7 [2] is reported as “Non-Toxic”. Further, in the series on Huh-7 [3], the inhibition result is “Dose-dependent effect”.
Regarding `CC(=O)C(C)(C)/C=C/[C@H](C)[C@@]1(O)C(=O)[C@H]2[C@@H](C=C[C@@H]2C)[C@H](C)[C@@H]1O`, the inhibition result in the series with Huh-7 [1] is “Active”. In the series on Huh-7 [2], the Activity result is “Non-Toxic”. Moreover, the inhibition result with Huh-7 [3] was “Dose-dependent effect”.
